The values that follow come from patent US12441703B2, “Carboxamides as modulators of sodium channels” (VERTEX PHARMACEUTICALS INCORPORATED, priority 2019, dated 2025).

Structures are written as SMILES. Some results are limits rather than exact numbers.

Sequence of human NaV 1.8 (Q9Y5Y9 whole entry, looked up, the tested form may be a part): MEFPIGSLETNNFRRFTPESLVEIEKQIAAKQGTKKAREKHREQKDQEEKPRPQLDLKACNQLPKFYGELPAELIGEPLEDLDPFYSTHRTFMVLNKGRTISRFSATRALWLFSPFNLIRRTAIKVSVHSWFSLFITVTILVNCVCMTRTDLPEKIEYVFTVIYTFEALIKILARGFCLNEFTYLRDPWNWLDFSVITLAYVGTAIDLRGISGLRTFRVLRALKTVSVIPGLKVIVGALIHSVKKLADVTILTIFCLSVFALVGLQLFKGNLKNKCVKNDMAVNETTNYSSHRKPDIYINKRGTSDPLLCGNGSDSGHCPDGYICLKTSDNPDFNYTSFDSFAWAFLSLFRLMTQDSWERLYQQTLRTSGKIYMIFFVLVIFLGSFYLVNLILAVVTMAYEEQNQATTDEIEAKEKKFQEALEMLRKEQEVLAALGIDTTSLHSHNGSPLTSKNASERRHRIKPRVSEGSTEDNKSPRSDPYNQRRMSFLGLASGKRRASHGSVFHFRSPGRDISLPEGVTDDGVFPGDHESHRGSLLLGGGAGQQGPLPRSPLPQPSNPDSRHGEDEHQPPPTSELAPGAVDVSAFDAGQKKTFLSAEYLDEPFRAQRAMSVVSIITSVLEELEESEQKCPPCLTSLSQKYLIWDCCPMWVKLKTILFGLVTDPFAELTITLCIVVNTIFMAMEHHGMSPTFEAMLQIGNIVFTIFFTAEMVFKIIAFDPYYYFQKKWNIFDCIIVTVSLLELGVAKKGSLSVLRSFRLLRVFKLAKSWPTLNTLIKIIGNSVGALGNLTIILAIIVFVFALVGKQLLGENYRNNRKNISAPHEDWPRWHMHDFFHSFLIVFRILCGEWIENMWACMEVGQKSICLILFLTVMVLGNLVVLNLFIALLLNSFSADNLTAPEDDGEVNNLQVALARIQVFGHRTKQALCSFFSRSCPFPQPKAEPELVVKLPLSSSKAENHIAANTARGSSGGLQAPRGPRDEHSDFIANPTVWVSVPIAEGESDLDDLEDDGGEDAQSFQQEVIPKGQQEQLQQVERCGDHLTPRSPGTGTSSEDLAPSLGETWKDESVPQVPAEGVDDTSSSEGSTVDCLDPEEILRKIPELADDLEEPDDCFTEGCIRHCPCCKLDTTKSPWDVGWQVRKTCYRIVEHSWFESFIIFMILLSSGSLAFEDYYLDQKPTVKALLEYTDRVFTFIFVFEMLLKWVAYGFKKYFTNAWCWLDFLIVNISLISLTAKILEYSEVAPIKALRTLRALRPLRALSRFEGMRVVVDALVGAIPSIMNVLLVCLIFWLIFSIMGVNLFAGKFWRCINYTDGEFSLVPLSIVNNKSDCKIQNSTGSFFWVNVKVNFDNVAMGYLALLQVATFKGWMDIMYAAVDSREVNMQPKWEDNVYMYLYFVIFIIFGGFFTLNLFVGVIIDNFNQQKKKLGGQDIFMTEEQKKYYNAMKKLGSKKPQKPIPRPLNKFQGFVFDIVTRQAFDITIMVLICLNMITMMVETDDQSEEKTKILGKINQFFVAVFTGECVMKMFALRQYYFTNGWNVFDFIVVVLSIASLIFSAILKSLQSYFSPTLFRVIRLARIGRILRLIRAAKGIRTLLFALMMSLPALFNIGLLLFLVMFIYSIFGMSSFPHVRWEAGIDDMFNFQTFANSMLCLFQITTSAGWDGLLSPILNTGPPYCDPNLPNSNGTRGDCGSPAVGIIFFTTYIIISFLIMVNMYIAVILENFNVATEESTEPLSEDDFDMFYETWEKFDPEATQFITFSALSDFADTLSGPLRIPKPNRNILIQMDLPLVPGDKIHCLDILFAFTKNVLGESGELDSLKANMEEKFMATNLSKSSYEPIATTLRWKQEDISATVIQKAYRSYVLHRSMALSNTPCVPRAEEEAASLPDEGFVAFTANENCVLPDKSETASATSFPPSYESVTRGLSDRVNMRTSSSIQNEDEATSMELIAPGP

The test addresses human NaV 1.8 (Homo sapiens, UniProt Q9Y5Y9). As to the kind of experiment: E-VIPR assay for detecting and measuring NaV inhibition properties. Type of test: cell-based. The settings on record: E-VIPR assay conducted in the presence of human serum; HEK cells expressing truncated human NaV 1.8; read-out: IC50. Summed up: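 HEK cells with truncated human NaV1.8 plus KIR2.1 BacMam, hexyl dye loaded 20 min, compound 30 min at room temperature, 11-point 3-fold series […], 0.625% DMSO, with or without human serum. E-VIPR biphasic stimulation at 10 Hz for 10 s; membrane-potential response read as normalized coumarin/oxonol ratio.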
For the compound `[2H]C([2H])([2H])Oc1cc(OC(F)(F)F)ccc1Oc1c(C)cc(C(F)(F)F)cc1C(=O)Nc1ccnc(C(N)=O)c1` [Compound 1039, 4-[[3-methyl-2-[2-(trideuteriomethoxy)-4-(trifluoromethoxy)phenoxy]-5-(trifluoromethyl)benzoyl]amino]pyridine-2-carboxamide], the half-inhibitory concentration (IC50) was over 3000 nM.
In the case of `COc1c(Oc2cc3c(c(F)c2C(=O)Nc2ccnc(C(N)=O)c2)OCC(C)(C)O3)ccc(OC(F)(F)F)c1F` [Compound 1040, 4-(5-fluoro-7-(3-fluoro-2-methoxy-4-(trifluoromethoxy)phenoxy)-2,2-dimethyl-2,3-dihydrobenzo[b][1,4]dioxine-6-carboxamido)picolinamide], the IC50 came to 6 nM.
Consider `COc1c(Oc2cc3c(c(F)c2C(=O)Nc2ccnc(C(N)=O)c2)OC(C)(C)CO3)ccc(OC(F)(F)F)c1F` [Compound 1041, 4-(5-fluoro-7-(3-fluoro-2-methoxy-4-(trifluoromethoxy)phenoxy)-3,3-dimethyl-2,3-dihydrobenzo[b][1,4]dioxine-6-carboxamido)picolinamide], for which the IC50 was 38 nM.

Broadly, the IC50 is the concentration at which inhibition is half-maximal.
